# What was measured:
# Experiment in all cases: relative viability (nuclei count vs DMSO), 5 days (fraction); higher = more cells survive
# FG-4592 + Luminespib = compound: Cc1nc(C(=O)NCC(=O)O)c(O)c2ccc(Oc3ccccc3)cc12 [FG-4592] + CCNC(=O)c1noc(-c2cc(C(C)C)c(O)cc2O)c1-c1ccc(CN2CCOCC2)cc1 [Luminespib] (partner 0.01 µM)
# Method in brief: (§1)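 Five library-drug doses in √10 steps were combined with a fixed anchor-drug dose, or a single drug was given alone, by pin tool to lung cancer cell lines in 1536-well plates the day after seeding. Nuclei were stained and counted after 5 days. Relative viability is the nuclei count in treated wells over that in vehicle wells, taken as the median of duplicate plates.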
# FG-4592 + Foretinib = compound: Cc1nc(C(=O)NCC(=O)O)c(O)c2ccc(Oc3ccccc3)cc12 [FG-4592] + COc1cc2c(Oc3ccc(NC(=O)C4(C(=O)Nc5ccc(F)cc5)CC4)cc3F)ccnc2cc1OCCCN1CCOCC1 [Foretinib] (partner 0.25 µM)
# Method in brief: as §1
# FG-4592 + Pictilisib = compound: Cc1nc(C(=O)NCC(=O)O)c(O)c2ccc(Oc3ccccc3)cc12 [FG-4592] + CS(=O)(=O)N1CCN(Cc2cc3nc(-c4cccc5[nH]ncc45)nc(N4CCOCC4)c3s2)CC1 [Pictilisib] (partner 1 µM)
# Method in brief: as §1
# FG-4592 + Linsitinib = compound: Cc1nc(C(=O)NCC(=O)O)c(O)c2ccc(Oc3ccccc3)cc12 [FG-4592] + C[C@]1(O)C[C@@H](c2nc(-c3ccc4ccc(-c5ccccc5)nc4c3)c3c(N)nccn32)C1 [Linsitinib] (partner 1 µM)
# Method in brief: as §1
cell line,measurement,setting,value
UMC-11,relative viability,FG-4592 + Luminespib; first compound 0.08 µM,0.957
same,relative viability,FG-4592 + Luminespib; first compound 0.253 µM,0.944
same,relative viability,FG-4592 + Luminespib; first compound 0.8 µM,1.01
same,relative viability,FG-4592 + Luminespib; first compound 2.53 µM,0.995
same,relative viability,FG-4592 + Luminespib; first compound 8 µM,0.778
same,relative viability,FG-4592 + Foretinib; first compound 0.08 µM,1.06
same,relative viability,FG-4592 + Foretinib; first compound 0.253 µM,1.03
same,relative viability,FG-4592 + Foretinib; first compound 0.8 µM,0.918
same,relative viability,FG-4592 + Foretinib; first compound 2.53 µM,1.03
same,relative viability,FG-4592 + Foretinib; first compound 8 µM,0.671
same,relative viability,FG-4592 + Pictilisib; first compound 0.08 µM,0.722
same,relative viability,FG-4592 + Pictilisib; first compound 0.253 µM,0.714
same,relative viability,FG-4592 + Pictilisib; first compound 0.8 µM,0.599
same,relative viability,FG-4592 + Pictilisib; first compound 2.53 µM,0.74
same,relative viability,FG-4592 + Pictilisib; first compound 8 µM,0.7
same,relative viability,FG-4592 + Linsitinib; first compound 0.08 µM,0.974
same,relative viability,FG-4592 + Linsitinib; first compound 0.253 µM,0.93
same,relative viability,FG-4592 + Linsitinib; first compound 0.8 µM,0.933
same,relative viability,FG-4592 + Linsitinib; first compound 2.53 µM,1.06
same,relative viability,FG-4592 + Linsitinib; first compound 8 µM,0.87
